≈ marks a conversion by molar mass, not a printed value.
Columns and labels:
[1] = target: Acetylcholinesterase (Homo sapiens, UniProt P22303); test: Inhibition of AChE (unknown origin) using acetylthiocholine chloride as substrate preincubated with enzyme for 15 mins followed by substrate addition by Ellman's method
[2] = system: MCF7; test: Antiproliferative activity against human MCF7 cells assessed as inhibition of cell proliferation incubated for 72 hrs by CellTiter-Glo assay; assay type: functional, cell-based; settings: MCF7, 72 h
[3] = system: HT-29; test: Antiproliferative activity against human HT-29 cells assessed as inhibition of cell proliferation incubated for 72 hrs by CellTiter-Glo assay; assay type: functional, cell-based; settings: HT-29, 72 h
[4] = Cytotoxicity against African green monkey Vero cells assessed as cell viability after 72 hrs by MTT assay; assay type: cell-based; settings: chlorocebus sabaeus, read-out: MNCC
[5] = system: MCF7; test: Antiproliferative activity against human MCF7 cells assessed as inhibition of cell proliferation at 50 uM incubated for 72 hrs by CellTiter-Glo assay relative to control; assay type: functional; settings: MCF7, read-out: INH
[6] = system: Mycobacterium tuberculosis; test: Antimycobacterial activity against Mycobacterium tuberculosis H37Rv assessed as inhibition of bacterial growth by microdilution alamar blue broth assay; assay type: functional, organism-based

Sequence of Acetylcholinesterase (P22303 whole entry): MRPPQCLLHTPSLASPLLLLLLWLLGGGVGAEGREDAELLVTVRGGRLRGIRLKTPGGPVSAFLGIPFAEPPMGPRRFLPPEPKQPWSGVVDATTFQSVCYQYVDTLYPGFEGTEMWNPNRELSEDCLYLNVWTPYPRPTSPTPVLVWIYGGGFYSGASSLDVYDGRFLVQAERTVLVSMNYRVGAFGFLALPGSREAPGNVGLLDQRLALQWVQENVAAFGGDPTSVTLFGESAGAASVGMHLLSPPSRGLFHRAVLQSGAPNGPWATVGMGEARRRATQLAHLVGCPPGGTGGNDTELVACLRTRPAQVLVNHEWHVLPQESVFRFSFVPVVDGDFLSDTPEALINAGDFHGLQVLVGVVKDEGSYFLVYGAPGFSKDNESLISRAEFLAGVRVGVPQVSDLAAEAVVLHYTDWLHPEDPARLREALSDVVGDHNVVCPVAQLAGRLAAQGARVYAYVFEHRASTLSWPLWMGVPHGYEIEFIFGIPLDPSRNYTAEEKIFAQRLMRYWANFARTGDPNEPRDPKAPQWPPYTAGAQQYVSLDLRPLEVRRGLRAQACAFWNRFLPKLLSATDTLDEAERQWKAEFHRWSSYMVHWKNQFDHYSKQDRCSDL

SMILES | IC50 [1] [µM] | IC50 [2] [µM] | IC50 [3] [µM] | MNTC at 72 h [4] [µg/mL] | inhibition at 50 µM [5] [%] | IC50 [6] [µM] | IC90 [6] [µM] | MIC [6] [µM]
O=C1c2ccccc2C(=O)C12N1CSC[C@@H]1[C@@H](c1cccs1)[C@@]21CSc2ccccc2C1=O | 19.1 | 97 | 94 | > 6.25 | < 50 | 12.9 | 24.6 | 50 (≈ 24.5 µg/mL)
CC[C@@H](CO)NCCN[C@@H](CC)CO [ETHAMBUTOL] |  |  |  | > 6.25 |  | < 1.56 |  | 12.5 (≈ 2.55 µg/mL)
O=C1c2ccccc2C(=O)C12N1CSC[C@@H]1[C@@H](c1cccc3ccccc13)[C@@]21CSc2ccccc2C1=O | 16.5 | 102 | 93.4 | > 6.25 | < 50 | 28.6 | 47.7 | 50 (≈ 26.7 µg/mL)
CN1C[C@@H](c2cccs2)[C@@]2(CSc3ccccc3C2=O)C12C(=O)c1ccccc1C2=O | 21.2 | 123 | 95.9 | > 6.25 | < 50 | 25.9 | 44.6 | 100 (≈ 44.6 µg/mL)
COc1ccc([C@@H]2[C@H]3CSCN3C3(C(=O)c4ccccc4C3=O)[C@]23CSc2ccccc2C3=O)cc1 | 1.1 | 86 | 97.2 | > 6.25 | < 50 | 12.9 | 24.6 | 50 (≈ 25.7 µg/mL)
CN1C[C@@H](c2cccc(F)c2)[C@@]2(CSc3ccccc3C2=O)C12C(=O)c1ccccc1C2=O | 24.6 | 108 | 82.1 | > 6.25 | < 50 | 4.28 | 9.86 | 25 (≈ 11.4 µg/mL)
CN1C[C@@H](c2cccc(Br)c2)[C@@]2(CSc3ccccc3C2=O)C12C(=O)c1ccccc1C2=O | 19.8 | 110 | 108 | > 6.25 | < 50 | 5.81 | 16.1 | 25 (≈ 13 µg/mL)
CN1C[C@@H](c2cccc3ccccc23)[C@@]2(CSc3ccccc3C2=O)C12C(=O)c1ccccc1C2=O | 2.12 | 86 | 97.2 | > 6.25 | < 50 | 6.87 | 14.6 | 25 (≈ 12.2 µg/mL)
CN1C[C@@H](c2ccc(F)cc2)[C@@]2(CSc3ccccc3C2=O)C12C(=O)c1ccccc1C2=O | 23.3 | 105 | 99.6 | > 6.25 | < 50 | 11.1 | 22 | 50 (≈ 22.9 µg/mL)
CN1CC(c2ccccc2Br)[C@@]2(CSc3ccccc3C2=O)C12C(=O)c1ccccc1C2=O (single isomer, unassigned) | 27.1 | 92.9 | 86.8 | > 6.25 | < 50 | 18.3 | 36.5 | 50 (≈ 25.9 µg/mL)
O=C1c2ccccc2C(=O)C12N1CSC[C@@H]1[C@@H](c1cccc(Br)c1)[C@@]21CSc2ccccc2C1=O | 38.3 | 84.8 | 79.6 | > 6.25 | < 50 | 17.2 | 35.5 | 50 (≈ 28.1 µg/mL)
O=C1c2ccccc2C(=O)C12N1CSC[C@@H]1[C@@H](c1ccccc1Br)[C@@]21CSc2ccccc2C1=O |  |  |  | > 6.25 |  |  |  | 
N[C@@H]1CONC1=O [CYCLOSERINE] |  |  |  | > 6.25 |  |  |  | 25 (≈ 2.55 µg/mL)
CC(C)c1ccc([C@@H]2[C@H]3CSCN3C3(C(=O)c4ccccc4C3=O)[C@]23CSc2ccccc2C3=O)cc1 | 28.3 | 91.8 | 93.4 | > 6.25 | < 50 | 45 | 76.4 | 100 (≈ 52.6 µg/mL)
O=C1c2ccccc2C(=O)C12N1CSC[C@@H]1[C@@H](c1ccc(Cl)cc1)[C@@]21CSc2ccccc2C1=O | 21.3 | 104 | 76.7 | > 6.25 | < 50 | 7.2 | 15.5 | 50 (≈ 25.9 µg/mL)
NNC(=O)c1ccncc1 [ISONIAZID] |  |  |  | > 6.25 |  |  | 0.29 | 0.31 (≈ 0.0425 µg/mL)
Cc1ccc([C@@H]2CN(C)C3(C(=O)c4ccccc4C3=O)[C@]23CSc2ccccc2C3=O)cc1 | 6.6 | 105 | 101 | > 6.25 | < 50 | 47.2 | 66.5 | 100 (≈ 45.4 µg/mL)
CC(C)c1ccc([C@@H]2CN(C)C3(C(=O)c4ccccc4C3=O)[C@]23CSc2ccccc2C3=O)cc1 | 19.8 | 93 | 98.3 | > 6.25 | < 50 | 25.9 | 44.6 | 100 (≈ 48.2 µg/mL)
O=C1c2ccccc2C(=O)C12N1CSC[C@@H]1[C@@H](c1ccc(Br)cc1)[C@@]21CSc2ccccc2C1=O | 34.6 | 92.9 | 86.8 | > 6.25 | < 50 | 21.9 | 47.9 | 50 (≈ 28.1 µg/mL)
CCc1nc(N)nc(N)c1-c1ccc(Cl)cc1 [PYRIMETHAMINE] |  |  |  | > 6.25 |  |  |  | 100 (≈ 24.9 µg/mL)
O=C1c2ccccc2C(=O)C12N1CSC[C@@H]1[C@@H](c1ccccc1)[C@@]21CSc2ccccc2C1=O | 12.9 | 93.5 | 92.2 | > 6.25 | < 50 | 16.3 | 25.5 | 100 (≈ 48.4 µg/mL)
Cc1ccc([C@@H]2[C@H]3CSCN3C3(C(=O)c4ccccc4C3=O)[C@]23CSc2ccccc2C3=O)cc1 | 7.11 | 107 | 90 | > 6.25 | < 50 | 28.6 | 47.7 | 50 (≈ 24.9 µg/mL)
CN1C[C@@H](c2ccc(Cl)cc2)[C@@]2(CSc3ccccc3C2=O)C12C(=O)c1ccccc1C2=O | 22.2 | 97 | 94 | > 6.25 | < 50 | 8.46 | 12.4 | 50 (≈ 23.7 µg/mL)
COc1cccc2c1C(=O)c1c(O)c3c(c(O)c1C2=O)C[C@@](O)(C(=O)CO)C[C@@H]3O[C@H]1C[C@H](N)[C@H](O)[C@H](C)O1 [DOXORUBICIN] |  |  | 12.9 |  |  |  |  | 
O=C1c2ccccc2C(=O)C12N1CSC[C@@H]1C(c1ccccc1Cl)[C@@]21CSc2ccccc2C1=O (single isomer, unassigned) | 33.2 | 101 | 88.1 | > 6.25 | < 50 | 8.57 | 14.7 | 50 (≈ 25.9 µg/mL)
CN1C[C@@H](c2ccc(Br)cc2)[C@@]2(CSc3ccccc3C2=O)C12C(=O)c1ccccc1C2=O | 28.3 | 101 | 88.1 | > 6.25 | < 50 | 29.9 | 41.9 | 50 (≈ 25.9 µg/mL)
